Test system: mESC Bmi1-luciferase reporter, firefly/renilla ratio, 24 h
Test: Bmi1-luciferase reporter activators in mESC, dose response, esBAF inhibitor project, mouse embryonic stem cells, cherry-pick (AID 651717);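 also: luciferase knocked into Bmi1 locus with EF-1a renilla as cell number control; rising ratio signals esBAF inhibition which derepresses Bmi1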

| SMILES | AC40 [µM] |
| --- | --- |
| O=C(Nc1ccc(-c2cnco2)cc1)c1ccc(F)cc1F | 4.28 |
| OCc1c(OCc2cccc(F)c2)ccc2ccccc12 | 7.24 |
| COC(=O)c1ccc(NC(=O)c2cc3sccc3n2C)cc1 | 6.75 |
| CC(C)Nc1nc(Cl)nc(Nc2ccccc2)n1 | 5.89 |
| Cc1ccc(C(=O)CNc2ccccc2)cc1 | 16.6 |
| Cc1ccc(Nc2nc3c(c(=O)[nH]2)CCCC3)cc1 | 8.9 |
| COc1ccc2cc(C(=O)N(C)CC(=O)Nc3ccccc3Br)ccc2c1 | 5.86 |
| O=C(NCCO)c1cccc(-c2cnc3c(Nc4cccc(OC(F)(F)C(F)F)c4)nccn23)c1 | 4.46 |
| CC(C)Cc1ccc(-c2ccc3nccn3c2)cc1 | 1.94 |
| COc1ccc(-c2cc3cc(OC)c(OC)cc3cn2)cc1 | 6.22 |
| C=CCNc1nc(NCc2cccc(OC)c2)c2sc(-c3ccccc3)cc2n1 | 1.86 |
| CCS(=O)(=O)N1Cc2ccccc2CC1C(=O)Nc1cccc(OC)c1 (centres undefined) | 8.28 |
| CCc1sc(C(=O)Nc2ncccc2C)cc1C | 20.1 |
| C(=Cc1cnnc2ccccc12)c1ccccc1 | 1.23 |
| Nc1n[nH]c(N)c1N=Nc1ccc(Cl)cc1 | 6.31 |
| COc1cc2c(cc1NC(=O)C(C)OC(=O)/C=C/c1ccc(OC(F)F)cc1)oc1ccccc12 (centres undefined) | 3.91 |
| Cn1c2nc3ccccc3c-2nc2ccccc21 | 4.33 |
| CCOC(=O)C1=C(CSc2nc(-c3ccccc3)ccc2C#N)OC(N)=C(C#N)C1c1ccc(OC)cc1 (centres undefined) | 6.12 |
| Cn1cccc1C(=O)NC1CCCCCC1 | 3.74 |
| CCCCCCCSc1ncnc2[nH]ncc12 | 17.1 |
| COc1ccc(-c2cc(C(=O)N3CCCC3)no2)cc1OC | 7.36 |
| C=CCn1c(O)c(C=Nc2ccccc2)sc1=S | 5.13 |
| O=c1sc(N2CCN(c3ccc(F)cc3)CC2)nc2ccsc12 | 1.76 |

| SMILES | AC40 [µM] |
| --- | --- |
| COc1ccc(-n2nc(C(=O)NCC(=O)N3CCN(c4ccccc4)CC3)c3ccccc3c2=O)cc1OC | 7.98 |
| CN(C)c1ccc(CSc2ccccc2)cc1 | 2.77 |
| COc1ccc(Cl)cc1C(=O)NNC(=O)c1cccs1 | 4.75 |
| COC(=O)c1ccc2nc(-c3cccc(Cl)c3)c(Cc3ccsc3)n2c1 | 7.98 |
| Oc1ccc(-c2nnc(SCc3ccccc3)o2)cc1 | 7.97 |
| c1ccc(Nc2cccc(Nc3ccccc3)n2)cc1 | 4.8 |
| NC(=O)c1ccccc1-c1nc(-c2ccccc2)no1 | 4.23 |
| O=C(Nc1ccccn1)c1ccc(Cl)c(S(=O)(=O)N2CCCC2)c1 | 14.6 |
| O=c1cc(-c2ccccc2Cl)oc2cc(O)cc(O)c12 | 12 |
| CCN(C(=O)c1cc2c(=O)n3cccc(C)c3nc2s1)C1CCCCC1 | 25.1 |
| CC(=O)c1ccc(NC(=O)c2cc(C)nc3ccccc23)cc1 | 3.55 |
| CCCCN(C(=O)CSc1nnc(Nc2ccc(C)c(C)c2)s1)c1c(N)n(Cc2ccccc2)c(=O)[nH]c1=O | 12.4 |
| OC(c1ccccc1)c1nc(/C=C/c2ccccc2)cs1 (centres undefined) | 4.88 |
| CC(=O)Nc1ccccc1OCc1nnc(-c2ccc(Cl)cc2)o1 | 8.95 |
| Cc1cc(Cl)nc(NC(=O)Nc2cccc(Cl)c2)n1 | 0.66 |
| CN(C)c1ccc(N=Cc2nc(-c3ccccc3)oc2OC(=O)c2cccc(Br)c2)cc1 | 1.2 |
| Cc1cc(C(=O)Nc2sc(C)c(-c3ccc(F)cc3)c2C(N)=O)no1 | 0.612 |
| COc1ccccc1-c1cnc(C(O)c2ccc(C)cc2)[nH]1 (centres undefined) | 10.2 |
| O=S(=O)(Nc1cccc(-c2ccc(N3CCCCCC3)nn2)c1)c1ccc(C(F)(F)F)cc1 | 13.1 |
| O=S(=O)(c1ccc2ccccc2c1)N1CCN(S(=O)(=O)c2c(F)cccc2F)CC1 | 1.26 |
| CC(=O)O/N=C(\N)c1ccc(-c2csnn2)cc1 | 29.5 |
| CC/C(=N\NC(=O)c1cc(C2CC2)[nH]n1)c1ccccc1 | 4.25 |
| Nc1cc2c(cc1Br)-c1ccccc1C2=NO | 9.76 |

| SMILES | AC40 [µM] |
| --- | --- |
| Cn1c(SCc2c(F)cccc2Cl)nnc1-c1cccs1 | 11.1 |
| COc1ccc(-c2csc(C(O)c3ccccc3)n2)cn1 (centres undefined) | 9.65 |
| CO[C@H]1CN(C)C(=O)c2cc(NC(=O)Nc3ccc4c(c3)OCO4)ccc2OC[C@H](C)NC[C@@H]1C | 13.2 |
| c1ccc(CCc2nc(-c3cccnc3)no2)cc1 | 1.64 |
| COc1cc2ccccc2cc1C(=O)NC1CCC(C)CC1 (centres undefined) | 8.67 |
| Cc1c(Cl)cccc1NC(=O)c1cc(C2CC2)on1 | 1.81 |
| N#CC(c1ccccc1O)N1N=C(c2ccccc2)CC1c1ccccc1 (centres undefined) | 1.43 |
| O=C(NCc1ccc2c(c1)OCO2)Nc1cccc(Cl)c1 | 7.4 |
| c1ccc(C2Oc3ccccc3C3CC(c4cccs4)=NN32)cc1 (centres undefined) | 8.04 |
| COc1ccc(C(=O)Nc2ccc(Cl)cn2)cc1Cl | 2.38 |
| C=CCn1cccc(C(=O)Nc2ccc(Cl)cc2)c1=O | 3.88 |
| Cc1ccc2sc(NC(=O)C3CC3)nc2c1C | 6.72 |
| O=C(Cc1ccccc1F)Nc1nc(-c2ccc(F)c(F)c2)cs1 | 9.65 |
| COc1ccc(-c2ccc(OC)cc2)cc1 | 4.64 |
| COC(=O)c1sc(Nc2ccccc2)nc1C | 4.18 |
| Cc1ccc(S(=O)(=O)N2CCN(C(=O)c3ccc4ccccc4n3)CC2)c(C)c1 | 6.53 |
| CN(Cc1ccccn1)C(=O)c1cc(COc2ccc(F)c(F)c2)on1 | 3.82 |
| C#CCSc1nnc(-c2ccc(O)cc2)o1 | 8.15 |
| O=C(COC(=O)[C@H](Cc1c[nH]c2ccccc12)NC(=O)c1ccc(Cl)cc1)Nc1ccc2c(c1)OCO2 | 10.5 |
| CCCCN(Cc1ccccc1)c1ncnc2nc[nH]c12 | 10.1 |
| OC(c1ccc(F)cc1)c1ncc(-c2ccc3ccccc3c2)[nH]1 (centres undefined) | 10.9 |
| COc1ccc2c(CN(C)Cc3ccccc3)cc(=O)oc2c1 | 0.841 |
| N#CCc1nc(CSc2nc3ccccc3s2)cs1 | 9.73 |

| SMILES | AC40 [µM] |
| --- | --- |
| CC(=O)N(/N=C1\Sc2ccccc2C1=O)c1ccccc1 | < 0.26 |
| COCOCCn1cc(CN2CCS(=O)(=O)N(Cc3ccc(-c4ccc(Cl)nc4)cc3)C(CC(C)C)C2=O)nn1 (centres undefined) | 34.2 |
| CCC(=O)n1nc(-c2ccc(Cl)cc2)nc1SC | 3.71 |
| CCc1sc(C(=O)Nc2ccc3nc(C)sc3c2)cc1C | 4.74 |
| COC(=O)c1ccc(COC(=O)CNC(=O)c2ccc(OC)cc2)cc1 | 6.87 |
| COc1ccc2nc(C(c3ccc(C)cc3)n3c(-c4ccccc4Br)nc4ccccc43)[nH]c2c1 (centres undefined) | 0.494 |
| COc1ccc(-c2cc(C(=O)Nc3ccc(NC(C)=O)cc3)[nH]n2)c(C)c1 | 1.21 |
| CCS(=O)(=O)n1nc(-c2ccc(Cl)cc2)nc1SC | 4.79 |
| COc1ccc(C2Nc3ccccc3C(=O)N2c2ccc(C)cc2)cc1Cn1nc(C)c([N+](=O)[O-])c1C (centres undefined) | 12.6 |
| O=C(Nc1ccc(SC(F)F)cc1)C12CCC(CC1)C2 | 5.66 |
| Cc1cc(NC(=O)CC2CCCC2)ccc1Br | 11.8 |
| Cc1sc2c(c1C)CN(C(C)(C)C)CN2C(=O)c1ccccc1 | 1.37 |
| C1=NN(c2ccccc2)C=NN1c1ccccc1 | 1.17 |
| Cc1cccc(Oc2coc3cc(O)ccc3c2=O)c1 | 15.7 |
| COc1cc(Cl)ccc1OCc1cc(C(=O)N2CCN(C)C(=O)[C@@H]2C)no1 | 1.64 |
| c1ccc(Nc2nc3ccccc3n3nnnc23)cc1 | 7.2 |
| Cc1cccc(NC(=O)CCCc2ccccc2)c1 | 9.57 |
| COc1cc(N=Nc2ccc(C(=O)N(C)C)cc2)c(C)cc1N | 8.86 |
| CC(C)C(=O)Nc1ccc(C(=O)c2ccccc2)cc1 | 8.18 |
| O=C(c1cccs1)N(C(=O)c1cccs1)c1ccc(Br)cn1 | 1.09 |

From PubChem BioAssay AID651717 (Broad Institute, 2012)
